# Experimental data reported in PubChem BioAssay AID1963845 (Molecular Pharmacology Branch, DTP, NCI, 2024).
# System: 429239-143-T-J1-PDC complex spheroid viability
# Test: Anticancer human tumor 429239-143-T-J1-PDC patient-derived small cell lung carcinoma cell line growth inhibition [POLQ]
# Conditions: for IC50: curve of first compound; for viability, T/C: stronger effect = lower value
# Outline: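 PDC + HUVEC + MSC complex spheroids; POLQ inhibitors ± partner drugs; top conc. at/near clinical Cmax, else 10 microM (SN-38 1 microM), half-log dilutions; 37 degrees C, 5% CO2.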
# [1] = second compound 0.0316 µM, first compound 0.0316 µM
# [2] = second compound 0.0316 µM, first compound 0.1 µM
# [3] = second compound 0.0316 µM, first compound 0.316 µM
# [4] = second compound 0.0316 µM, first compound 1 µM
# [5] = second compound 0.0316 µM, first compound 3.16 µM
# [6] = second compound 0.0316 µM, first compound 10 µM
# [7] = second compound 0.1 µM, first compound 0.0316 µM
# [8] = second compound 0.1 µM, first compound 0.1 µM
# [9] = second compound 0.1 µM, first compound 0.316 µM
# [10] = second compound 0.1 µM, first compound 1 µM
# [11] = second compound 0.1 µM, first compound 3.16 µM
# [12] = second compound 0.1 µM, first compound 10 µM
# [13] = second compound 0.316 µM, first compound 0.0316 µM
# [14] = second compound 0.316 µM, first compound 0.1 µM
# [15] = second compound 0.316 µM, first compound 0.316 µM
# [16] = second compound 0.316 µM, first compound 1 µM
# [17] = second compound 0.316 µM, first compound 3.16 µM
# [18] = second compound 0.316 µM, first compound 10 µM
# [19] = second compound 1 µM, first compound 0.0316 µM
# [20] = second compound 1 µM, first compound 0.1 µM
# [21] = second compound 1 µM, first compound 0.316 µM
# [22] = second compound 1 µM, first compound 1 µM
# [23] = second compound 1 µM, first compound 3.16 µM
# [24] = second compound 1 µM, first compound 10 µM
# [25] = second compound 3.16 µM, first compound 0.0316 µM
# [26] = second compound 3.16 µM, first compound 0.1 µM
# [27] = second compound 3.16 µM, first compound 0.316 µM
# [28] = second compound 3.16 µM, first compound 1 µM
# [29] = second compound 3.16 µM, first compound 3.16 µM
# [30] = second compound 3.16 µM, first compound 10 µM
# [31] = second compound 10 µM, first compound 0.0316 µM
# [32] = second compound 10 µM, first compound 0.1 µM
# [33] = second compound 10 µM, first compound 0.316 µM
# [34] = second compound 10 µM, first compound 1 µM
# [35] = second compound 10 µM, first compound 3.16 µM
# [36] = second compound 10 µM, first compound 10 µM
# 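Also: luminescence signal used as surrogate measure of viable cells; spheroids exposed to compounds for seven days before readout.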
# 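For viability, T/C in this document: 100% = DMSO vehicle control viability as luminescence relative to vehicle.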
structure (smiles),measurement,setting,value
C#Cc1c(F)ccc2cc(O)cc(-c3ncc4c(N5CC6CCC(C5)N6)nc(OCC56CCCN5CC(F)C6)nc4c3F)c12 (centres undefined) + Cc1cccc(N(C)C(=O)C2C(O)CCN2c2nc(C)cc(C(F)(F)F)c2C#N)c1,IC50,second compound 0.0316 µM,> 10000 nM
same,IC50,second compound 0.1 µM,> 10000 nM
same,IC50,second compound 0.316 µM,> 10000 nM
same,IC50,second compound 1 µM,> 10000 nM
same,IC50,second compound 3.16 µM,> 10000 nM
same,IC50,second compound 10 µM,> 10000 nM
same,"viability, T/C",[1],91%
same,"viability, T/C",[2],92.4%
same,"viability, T/C",[3],97.1%
same,"viability, T/C",[4],98.9%
same,"viability, T/C",[5],98.9%
same,"viability, T/C",[6],100%
same,"viability, T/C",[7],117%
same,"viability, T/C",[8],110%
same,"viability, T/C",[9],89.7%
same,"viability, T/C",[10],101%
same,"viability, T/C",[11],91.1%
same,"viability, T/C",[12],103%
same,"viability, T/C",[13],99.6%
same,"viability, T/C",[14],100%
same,"viability, T/C",[15],98.5%
same,"viability, T/C",[16],93.8%
same,"viability, T/C",[17],89.2%
same,"viability, T/C",[18],93.5%
same,"viability, T/C",[19],101%
same,"viability, T/C",[20],108%
same,"viability, T/C",[21],105%
same,"viability, T/C",[22],92.5%
same,"viability, T/C",[23],89.9%
same,"viability, T/C",[24],92.5%
same,"viability, T/C",[25],90.2%
same,"viability, T/C",[26],88.4%
same,"viability, T/C",[27],106%
same,"viability, T/C",[28],86.3%
same,"viability, T/C",[29],95.4%
same,"viability, T/C",[30],92%
same,"viability, T/C",[31],100%
same,"viability, T/C",[32],78.3%
same,"viability, T/C",[33],101%
same,"viability, T/C",[34],86%
same,"viability, T/C",[35],103%
same,"viability, T/C",[36],100%
COc1cc(C2c3cc4c(cc3C(OC3OC5COC(C)OC5C(O)C3O)C3COC(=O)C23)OCO4)cc(OC)c1O (centres undefined) + Nc1ccc(C#CCN(C(=O)Cc2ncc(C(F)(F)F)cc2C(F)(F)F)c2ccc(F)cc2)nn1,IC50,second compound 0.0316 µM,506 nM
same,IC50,second compound 0.1 µM,489 nM
same,IC50,second compound 0.316 µM,514 nM
same,IC50,second compound 1 µM,463 nM
same,IC50,second compound 3.16 µM,486 nM
same,IC50,second compound 10 µM,444 nM
same,"viability, T/C",[1],106%
same,"viability, T/C",[2],103%
same,"viability, T/C",[3],76.4%
same,"viability, T/C",[4],11.7%
same,"viability, T/C",[5],6.31%
same,"viability, T/C",[6],7.42%
same,"viability, T/C",[7],103%
same,"viability, T/C",[8],99.5%
same,"viability, T/C",[9],73%
same,"viability, T/C",[10],12%
same,"viability, T/C",[11],7.16%
same,"viability, T/C",[12],6.74%
same,"viability, T/C",[13],104%
same,"viability, T/C",[14],105%
same,"viability, T/C",[15],77.2%
same,"viability, T/C",[16],12.9%
same,"viability, T/C",[17],5.81%
same,"viability, T/C",[18],7.82%
same,"viability, T/C",[19],92.5%
same,"viability, T/C",[20],95.3%
same,"viability, T/C",[21],68.5%
same,"viability, T/C",[22],12.6%
same,"viability, T/C",[23],7.75%
same,"viability, T/C",[24],8.54%
same,"viability, T/C",[25],100%
same,"viability, T/C",[26],95.2%
same,"viability, T/C",[27],71.3%
same,"viability, T/C",[28],14.6%
same,"viability, T/C",[29],5.65%
same,"viability, T/C",[30],8.11%
same,"viability, T/C",[31],100%
same,"viability, T/C",[32],96.1%
same,"viability, T/C",[33],66.1%
same,"viability, T/C",[34],11.5%
same,"viability, T/C",[35],5.67%
same,"viability, T/C",[36],7.88%
